Data on one compound can be found in article PMC10290391, “Targeted degradation of ⍺-synuclein aggregates in Parkinson’s disease using the AUTOTAC technology” (Molecular Neurodegeneration, 2023).

In this experiment the test system is α-syn aggregates. The experiment is described as follows: Triton X-100 fractionation assay in SH-SY5Y α-syn A53T cells transduced with α-syn PFFs. It counts as cell-based, human. Here is the method:
Recombinant human α-syn (1–140) were obtained from NKMAX (SNA2001L). In vitro fibrillization was performed by diluting recombinant α-syn monomers to 1 mg/mL in sterile PBS, then incubating at 37 °C with constant agitation at 1,000 rpm for seven days. The fibrillization was verified by thioflavin T and sedimentation assays. The ability to form phospho-α-syn (S129) was also assessed by immunocytochemistry. In addition, to determine whether the generated PFFs act as seeds to accumulate endogenous α-syn, an adenovirus that expresses c-Myc-His-tagged human α-syn (gifted from lab of S.J.L) was used to infect cultured cells at an MOI of 10, followed by a fractionation assay. The administration of PFFs into 293A cells was done with protein delivery reagent (BioPORTER QuikEase Protein Delivery Kit, Sigma) following the provider’s instruction. The mouse α-syn PFFs were obtained from StressMarq (SPR-324). […]
For the separation of Triton X-100 soluble and insoluble fractions for monitoring α-syn, cells were washed with PBS and lysed in Triton X-100 buffer (50 mM Tris / 150 mM NaCl / 100 mM EDTA / 1% Triton X-100, pH 7.6) containing protease and phosphatase inhibitors for 30 min on ice. […] Immunoreactive bands were detected using ECL reagents (Thermo Fisher Scientific, 32,106). […] Densitometry of developed bands was analyzed with ImageJ (NIH, Bethesda).

“And” between values parts separate entries of the source, which are not always exact repeats. Equal values may be shown once. “Also recorded” adds a separate entry of the source.

Regarding `Fc1ccc(COc2cccc(CNCCOCCOCCNc3cccc(-c4cc(-c5ccc6c(c5)OCO6)n[nH]4)c3)c2)cc1` [ATC161, 3-(3-(benzo[d][1,3]dioxol-5-yl)-1H-pyrazol-5-yl)-N-(2-(2-(2-((3-((4-fluorobenzyl)oxy)benzyl)amino)ethoxy)ethoxy)ethyl)aniline], the DC50 (Triton X-100 insoluble fraction, read-out: half degradation concentration (DC50) of α-syn aggregates) is ~0.1 µM and 0.1 µM. Moreover, for the setting “soluble fraction”, the “degradation of monomeric α-syn” value is reported as “No apparent degradation; also recorded: no such degradation was observed”.
